Values joined by “and” are separate entries in the source; they are usually repeats but may differ in a detail not shown here. Equal values may be shown once.
Columns and labels:
[1] = molar heat capacity at constant pressure; details: 101.33 kPa, Crystal, Flow calorimetry
[2] = molar enthalpy of vaporization or sublimation
[3] = molar enthalpy of transition or fusion; details: Crystal, DSC
[4] = Molar enthalpy of transition or fusion; details: Crystal; DSC

O=C(O)c1cc(Br)ccc1Br [2,5-dibromobenzoic acid]
Details | Normal melting temperature [°C] | molar enthalpy of transition or fusion [kcal/mol] | molar heat capacity at constant pressure
Crystal, DTA | 155 | – | –
[1], 288.2 K | – | – | 216 J/K/mol and 215.9 J/K/mol
[1], 290.2 K | – | – | 217.4 J/K/mol and 217.6 J/K/mol and 217.5 J/K/mol
[1], 292.2 K | – | – | 219.4 J/K/mol and 219.3 J/K/mol
[1], 294.2 K | – | – | 220.4 J/K/mol and 220.6 J/K/mol and 220.5 J/K/mol
[1], 296.2 K | – | – | 221.5 J/K/mol and 221.4 J/K/mol and 221.7 J/K/mol
[1], 298.2 K | – | – | 222.9 J/K/mol and 223 J/K/mol and 223.1 J/K/mol
[1], 300.2 K | – | – | 224.7 J/K/mol and 224.8 J/K/mol
[1], 302.2 K | – | – | 225.9 J/K/mol and 225.6 J/K/mol and 225.8 J/K/mol
[1], 304.2 K | – | – | 227 J/K/mol and 227.3 J/K/mol and 227.1 J/K/mol
[1], 306.2 K | – | – | 228.3 J/K/mol and 228.4 J/K/mol and 228.5 J/K/mol
[1], 308.2 K | – | – | 229.8 J/K/mol and 229.6 J/K/mol
[1], 310.2 K | – | – | 231.7 J/K/mol and 231.6 J/K/mol and 231.5 J/K/mol
[1], 312.2 K | – | – | 232.5 J/K/mol and 232.4 J/K/mol and 232.3 J/K/mol
[1], 314.2 K | – | – | 234 J/K/mol and 233.9 J/K/mol and 234.1 J/K/mol
[1], 316.2 K | – | – | 235.3 J/K/mol and 235.2 J/K/mol
[1], 318.2 K | – | – | 237 J/K/mol and 236.8 J/K/mol and 236.9 J/K/mol
[1], 320.2 K | – | – | 238.4 J/K/mol and 238.5 J/K/mol and 238.3 J/K/mol
[1], 322.2 K | – | – | 239.1 J/K/mol and 239 J/K/mol
[1], 324.2 K | – | – | 240.7 J/K/mol and 240.5 J/K/mol and 240.4 J/K/mol
[1], 326.2 K | – | – | 242.4 J/K/mol and 242.1 J/K/mol and 242.3 J/K/mol
[3], 298.15 K | – | 31.6 | –
[3], 428 K | – | 30.7 | –

[2]
Details | molar enthalpy [kcal/mol]
298.15 K, Crystal, Torsion-effucion | 31.9
428 K, Liquid, DSC | 22.2

Details | vapor or sublimation pressure [kPa]
346.8 K, Crystal, Torsion effusion method | 4.7e-05
348.6 K, Crystal, Torsion effusion method | 5.7e-05
350 K, Crystal, Torsion effusion method | 7.6e-05
350.2 K, Crystal, Torsion effusion method | 7.6e-05
352.2 K, Crystal, Torsion effusion method | 9.5e-05
353 K, Crystal, Torsion effusion method | 0.000114
353.5 K, Crystal, Torsion effusion method | 0.000114
353.6 K, Crystal, Torsion effusion method | 0.000114
354.3 K, Crystal, Torsion effusion method | 0.000133
354.8 K, Crystal, Torsion effusion method | 0.000133
356.1 K, Crystal, Torsion effusion method | 0.000171
356.2 K, Crystal, Torsion effusion method | 0.000152
356.8 K, Crystal, Torsion effusion method | 0.000171
357.3 K, Crystal, Torsion effusion method | 0.000189
357.8 K, Crystal, Torsion effusion method | 0.000208
358.3 K, Crystal, Torsion effusion method | 0.000208
359.2 K, Crystal, Torsion effusion method | 0.000246
359.6 K, Crystal, Torsion effusion method | 0.000227
360.2 K, Crystal, Torsion effusion method | 0.000246
360.4 K, Crystal, Torsion effusion method | 0.000265
361.5 K, Crystal, Torsion effusion method | 0.000303
361.7 K, Crystal, Torsion effusion method | 0.000303
362.4 K, Crystal, Torsion effusion method | 0.00036
362.5 K, Crystal, Torsion effusion method | 0.000322
363 K, Crystal, Torsion effusion method | 0.000379
363.8 K, Crystal, Torsion effusion method | 0.000388
364.6 K, Crystal, Torsion effusion method | 0.000493
364.7 K, Crystal, Torsion effusion method | 0.000474
365.6 K, Crystal, Torsion effusion method | 0.000474
366.2 K, Crystal, Torsion effusion method | 0.000493
367.3 K, Crystal, Torsion effusion method | 0.000606
367.6 K, Crystal, Torsion effusion method | 0.000701
367.7 K, Crystal, Torsion effusion method | 0.000682
369.1 K, Crystal, Torsion effusion method | 0.000777
369.7 K, Crystal, Torsion effusion method | 0.000834
370.5 K, Crystal, Torsion effusion method | 0.000853
370.7 K, Crystal, Torsion effusion method | 0.000947
371.2 K, Crystal, Torsion effusion method | 0.001023
372.3 K, Crystal, Torsion effusion method | 0.001099
373 K, Crystal, Torsion effusion method | 0.001175
373.5 K, Crystal, Torsion effusion method | 0.001213
373.7 K, Crystal, Torsion effusion method | 0.00127
375.4 K, Crystal, Torsion effusion method | 0.001516
376.8 K, Crystal, Torsion effusion method | 0.001914
376.9 K, Crystal, Torsion effusion method | 0.001762
440.2 K, Liquid, non-isothermal thermogravimetric | 0.643
440.5 K, Liquid, non-isothermal thermogravimetric | 0.663
441.3 K, Liquid, non-isothermal thermogravimetric | 0.731
442.1 K, Liquid, non-isothermal thermogravimetric | 0.732
443.1 K, Liquid, isothermal thermogravimetric | 0.819
444 K, Liquid, isothermal thermogravimetric | 0.821
444.1 K, Liquid, isothermal thermogravimetric | 0.835
444.1 K, Liquid, non-isothermal thermogravimetric | 0.844
444.6 K, Liquid, non-isothermal thermogravimetric | 0.841
444.8 K, Liquid, isothermal thermogravimetric | 0.822
445.4 K, Liquid, non-isothermal thermogravimetric | 0.919
446.3 K, Liquid, non-isothermal thermogravimetric | 0.924
447 K, Liquid, isothermal thermogravimetric | 1.031
448.1 K, Liquid, isothermal thermogravimetric | 1.01
448.3 K, Liquid, isothermal thermogravimetric | 1.044
448.3 K, Liquid, non-isothermal thermogravimetric | 1.04
448.7 K, Liquid, isothermal thermogravimetric | 1.012
448.8 K, Liquid, non-isothermal thermogravimetric | 1.066
449.2 K, Liquid, non-isothermal thermogravimetric | 1.146
450.1 K, Liquid, non-isothermal thermogravimetric | 1.151
451.2 K, Liquid, isothermal thermogravimetric | 1.291
452 K, Liquid, non-isothermal thermogravimetric | 1.302
452.1 K, Liquid, isothermal thermogravimetric | 1.259
452.3 K, Liquid, isothermal thermogravimetric | 1.306
452.9 K, Liquid, isothermal thermogravimetric | 1.282
452.9 K, Liquid, non-isothermal thermogravimetric | 1.335
453.1 K, Liquid, non-isothermal thermogravimetric | 1.404
454.2 K, Liquid, non-isothermal thermogravimetric | 1.429
455.1 K, Liquid, isothermal thermogravimetric | 1.608
456.1 K, Liquid, isothermal thermogravimetric | 1.617
456.2 K, Liquid, isothermal thermogravimetric | 1.573
456.3 K, Liquid, non-isothermal thermogravimetric | 1.578
456.7 K, Liquid, non-isothermal thermogravimetric | 1.622
456.8 K, Liquid, isothermal thermogravimetric | 1.602
457.1 K, Liquid, non-isothermal thermogravimetric | 1.739
458.2 K, Liquid, non-isothermal thermogravimetric | 1.752
459.3 K, Liquid, isothermal thermogravimetric | 1.974
460 K, Liquid, isothermal thermogravimetric | 1.91
460.1 K, Liquid, non-isothermal thermogravimetric | 1.931
460.3 K, Liquid, isothermal thermogravimetric | 1.994
460.6 K, Liquid, non-isothermal thermogravimetric | 1.967
461 K, Liquid, isothermal thermogravimetric | 1.945
461.2 K, Liquid, non-isothermal thermogravimetric | 2.111
462.1 K, Liquid, non-isothermal thermogravimetric | 2.123
463.1 K, Liquid, isothermal thermogravimetric | 2.39
464.1 K, Liquid, isothermal thermogravimetric | 2.401
464.2 K, Liquid, non-isothermal thermogravimetric | 2.396
464.3 K, Liquid, isothermal thermogravimetric | 2.319
464.8 K, Liquid, isothermal thermogravimetric | 2.362
464.8 K, Liquid, non-isothermal thermogravimetric | 2.456
465.4 K, Liquid, non-isothermal thermogravimetric | 2.637
466.2 K, Liquid, non-isothermal thermogravimetric | 2.643
467 K, Liquid, isothermal thermogravimetric | 2.886
467.1 K, Liquid, isothermal thermogravimetric | 2.776
468.1 K, Liquid, non-isothermal thermogravimetric | 2.879
468.2 K, Liquid, isothermal thermogravimetric | 2.931
468.5 K, Liquid, non-isothermal thermogravimetric | 2.897
468.7 K, Liquid, isothermal thermogravimetric | 2.855

Details | Molar enthalpy of transition or fusion [kcal/mol]
[4] | 8.77

From the NIST ThermoML archive (doi:10.1016/j.fluid.2012.11.006)
